Results on 17 compounds are retold here after patent US20240190880A1 (THE REGENTS OF THE UNIVERSITY OF MICHIGAN, priority 2021, published 2024).

Each structure is given as a SMILES string.

One assay deals with T1, ER (Homo sapiens, UniProt P03372).
T1 construct: host or cells: T47D and MCF7 human breast cancer cells
T1 sequence (P03372 1-595): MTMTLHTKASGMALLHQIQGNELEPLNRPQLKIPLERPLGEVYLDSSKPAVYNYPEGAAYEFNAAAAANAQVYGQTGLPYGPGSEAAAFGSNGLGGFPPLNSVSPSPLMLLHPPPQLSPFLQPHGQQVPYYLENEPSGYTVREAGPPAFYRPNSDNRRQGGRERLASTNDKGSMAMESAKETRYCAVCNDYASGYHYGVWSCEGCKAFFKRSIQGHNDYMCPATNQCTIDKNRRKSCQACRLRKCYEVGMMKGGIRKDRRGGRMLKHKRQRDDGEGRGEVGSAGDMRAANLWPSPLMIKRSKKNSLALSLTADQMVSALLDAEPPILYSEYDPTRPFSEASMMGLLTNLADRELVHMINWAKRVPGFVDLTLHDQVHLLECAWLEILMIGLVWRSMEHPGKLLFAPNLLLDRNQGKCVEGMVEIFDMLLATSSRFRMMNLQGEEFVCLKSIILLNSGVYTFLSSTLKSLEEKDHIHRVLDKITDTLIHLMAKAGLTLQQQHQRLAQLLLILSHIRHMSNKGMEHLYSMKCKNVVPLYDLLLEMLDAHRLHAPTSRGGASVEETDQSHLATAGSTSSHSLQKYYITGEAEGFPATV
Nature of the assay: ER degradation activity, in-cell western blot analysis in T47D cells. Format: cell-based. The settings on record: 16 hours, Table A does not say which cell line (T47D or MCF7), read-out: Potency (DC50). The procedure, abridged:
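Read-out is near-infrared fluorescence from an in-cell western, expressed as ER percentage relative to untreated and DMSO controls taken as 100%. T47D breast cancer cells received compound for 16 h in 0.5% DMSO.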
For the compound `O=C1CCC(N2C(=O)c3cc4c(cc3C2=O)CN(C2CCN(C(=O)C3(F)CCN(c5ccc([C@@H]6c7ccc(O)cc7CC[C@@H]6c6ccccc6)cc5)CC3)CC2)C4)C(=O)N1` (stereo partly drawn) [E 241, 2-(2,6-dioxopiperidin-3-yl)-6-(1-(4-fluoro-1-(4-((1R,2S)-6-hydroxy-2-phenyl-1,2,3,4-tetrahydronaphthalen-1-yl)phenyl)piperidine-4-carbonyl)piperidin-4-yl)-6,7-dihydropyrrolo[3,4-f]isoindole-1,3(2H,5H)-dione], the DC50 was greater than 100 nM.

Regarding `O=C1CCC(N2C(=O)c3cc4c(cc3C2=O)CN(CC(=O)N2CCC(n3cc(-c5ccc([C@@H]6c7ccc(O)cc7CC[C@@H]6c6ccccc6)cc5)cn3)CC2)C4)C(=O)N1` (stereo partly drawn) [E 214, 2-(2,6-dioxopiperidin-3-yl)-6-(2-(4-(4-(4-((1R,2S)-6-hydroxy-2-phenyl-1,2,3,4-tetrahydronaphthalen-1-yl)phenyl)-1H-pyrazol-1-yl)piperidin-1-yl)-2-oxoethyl)-6,7-dihydropyrrolo[3,4-f]isoindole-1,3(2H,5H)-dione], the DC50 was greater than 100 nM.

As for `C[C@H]1Cc2c([nH]c3ccccc23)[C@H](c2c(F)cc(N3CC4(CCCN(C(=O)CN5Cc6cc7c(cc6C5)C(=O)N(C5CCC(=O)NC5=O)C7=O)C4)C3)cc2F)N1CC(F)F` (stereo in doubt) [E 80, 6-(2-(2-(4-((1S,3S)-2-(2,2-difluoroethyl)-3-methyl-2,3,4,9-tetrahydro-1H-pyrido[3,4-b]indol-1-yl)-3,5-difluorophenyl)-2,6-diazaspiro[3.5]nonan-6-yl)-2-oxoethyl)-2-(2,6-dioxopiperidin-3-yl)-6,7-dihydropyrrolo[3,4-f]isoindole-1,3(2H,5H)-dione], the DC50 lay within 10 to 100 nM.

Turning to `C[C@@H]1Cc2c([nH]c3ccccc23)[C@@H](c2c(F)cc(-c3cnc(C(=O)N4CCC(N5Cc6cc7c(cc6C5)C(=O)N(C5CCC(=O)NC5=O)C7=O)CC4)nc3)cc2F)N1CC(F)F` (stereo partly drawn) [E 309, 6-(1-(5-(4-((1R,3R)-2-(2,2-difluoroethyl)-3-methyl-2,3,4,9-tetrahydro-1H-pyrido[3,4-b]indol-1-yl)-3,5-difluorophenyl)pyrimidine-2-carbonyl)piperidin-4-yl)-2-(2,6-dioxopiperidin-3-yl)-6,7-dihydropyrrolo[3,4-f]isoindole-1,3(2H,5H)-dione], the DC50 lay within 10 to 100 nM.

For `O=C1CCC(N2C(=O)c3cc4c(cc3C2=O)CCN(C(=O)CN2CC3(CCN(c5ccc([C@@H]6c7ccc(O)cc7CC[C@@H]6c6ccccc6)cc5)CC3)C2)CC4)C(=O)N1` (stereo partly drawn) [E 170, 2-(2,6-dioxopiperidin-3-yl)-7-(2-(7-(4-((1R,2S)-6-hydroxy-2-phenyl-1,2,3,4-tetrahydronaphthalen-1-yl)phenyl)-2,7-diazaspiro[3.5]nonan-2-yl)acetyl)-6,7,8,9-tetrahydroazepino[4,5-f]isoindole-1,3(2H,5H)-dione], the DC50 was greater than 100 nM.

On to `C[C@@H]1Cc2c([nH]c3ccccc23)[C@@H](c2c(F)cc(N3CCC(CN4CCC5(CCC(N6Cc7cc8c(cc7C6)C(=O)N(C6CCC(=O)NC6=O)C8=O)C5)CC4)CC3)cc2F)N1CC(F)F` (stereo partly drawn) [E 133, 6-(8-((1-(4-((1R,3R)-2-(2,2-difluoroethyl)-3-methyl-2,3,4,9-tetrahydro-1H-pyrido[3,4-b]indol-1-yl)-3,5-difluorophenyl)piperidin-4-yl)methyl)-8-azaspiro[4.5]decan-2-yl)-2-(2,6-dioxopiperidin-3-yl)-6,7-dihydropyrrolo[3,4-f]isoindole-1,3(2H,5H)-dione], for which the DC50 was in the range of 10 to 100 nM.

As to `O=C1CCC(N2C(=O)c3cc4c(cc3C2=O)CN(C(=O)[C@H]2CC[C@H](N3CC(Nc5ccc([C@H]6c7ccc(O)cc7CC[C@H]6c6ccccc6)cc5)C3)CC2)C4)C(=O)N1` (stereo partly drawn) [E 391, 2-(2,6-dioxopiperidin-3-yl)-6-((1S,4r)-4-(3-((4-((1S,2R)-6-hydroxy-2-phenyl-1,2,3,4-tetrahydronaphthalen-1-yl)phenyl)amino)azetidin-1-yl)cyclohexane-1-carbonyl)-6,7-dihydropyrrolo[3,4-f]isoindole-1,3(2H,5H)-dione], the DC50 is greater than 100 nM.

On to `O=C1CCC(N2C(=O)c3cc4c(cc3C2=O)CN(C(=O)[C@H]2CC[C@@H](CN3CC(Nc5ccc([C@@H]6c7ccc(O)cc7CC[C@@H]6c6ccccc6)cc5)C3)CC2)C4)C(=O)N1` (stereo partly drawn) [E 364, 2-(2,6-dioxopiperidin-3-yl)-6-((1S,4s)-4-((3-((4-((1R,2S)-6-hydroxy-2-phenyl-1,2,3,4-tetrahydronaphthalen-1-yl)phenyl)amino)azetidin-1-yl)methyl)cyclohexane-1-carbonyl)-6,7-dihydropyrrolo[3,4-f]isoindole-1,3(2H,5H)-dione], for which the DC50 fell in the range of 10 to 100 nM.

As to `O=C1CCC(N2C(=O)c3cc4c(cc3C2=O)CN(C2CCN(C(=O)C3CCN(c5ccc([C@@H]6c7ccc(O)cc7CC[C@@H]6c6ccccc6)cc5)CC3)CC2)C4)C(=O)N1` (stereo partly drawn) [E 240, 2-(2,6-dioxopiperidin-3-yl)-6-(1-(1-(4-((1R,2S)-6-hydroxy-2-phenyl-1,2,3,4-tetrahydronaphthalen-1-yl)phenyl)piperidine-4-carbonyl)piperidin-4-yl)-6,7-dihydropyrrolo[3,4-f]isoindole-1,3(2H,5H)-dione], the DC50 was greater than 100 nM.

For the compound `C[C@@H]1Cc2c([nH]c3ccccc23)[C@@H](c2c(F)cc(N3CCC4(CCN(CC(=O)N5Cc6cc7c(cc6C5)C(=O)N(C5CCC(=O)NC5=O)C7=O)C4)C3)cc2F)N1CC(F)F` (stereo partly drawn) [E 76, 6-(2-(7-(4-((1R,3R)-2-(2,2-difluoroethyl)-3-methyl-2,3,4,9-tetrahydro-1H-pyrido[3,4-b]indol-1-yl)-3,5-difluorophenyl)-2,7-diazaspiro[4.4]nonan-2-yl)acetyl)-2-(2,6-dioxopiperidin-3-yl)-6,7-dihydropyrrolo[3,4-f]isoindole-1,3(2H,5H)-dione], the DC50 is greater than 100 nM.

For the compound `C[C@@H]1Cc2c([nH]c3ccccc23)[C@@H](c2c(F)cc(N3CCCC4(CN(C(=O)CN5Cc6cc7c(cc6C5)C(=O)N(C5CCC(=O)NC5=O)C7)C4)C3)cc2F)N1CC(F)F` (stereo partly drawn) [E 70, 3-(6-(2-(6-(4-((1R,3R)-2-(2,2-difluoroethyl)-3-methyl-2,3,4,9-tetrahydro-1H-pyrido[3,4-b]indol-1-yl)-3,5-difluorophenyl)-2,6-diazaspiro[3.5]nonan-2-yl)-2-oxoethyl)-1-oxo-3,5,6,7-tetrahydropyrrolo[3,4-f]isoindol-2(1H)-yl)piperidine-2,6-dione], the DC50 lay within 10 to 100 nM.

In the case of `O=C1CCC(N2C(=O)c3cc4c(cc3C2=O)CN(CC2CCN(CC3CN(c5ccc([C@@H]6c7ccc(O)cc7CC[C@@H]6c6ccc(F)cc6)cc5)C3)CC2)C4)C(=O)N1` (stereo partly drawn) [E 277, 2-(2,6-dioxopiperidin-3-yl)-6-((1-((1-(4-((1R,2S)-2-(4-fluorophenyl)-6-hydroxy-1,2,3,4-tetrahydronaphthalen-1-yl)phenyl)azetidin-3-yl)methyl)piperidin-4-yl)methyl)-6,7-dihydropyrrolo[3,4-f]isoindole-1,3(2H,5H)-dione], the DC50 was greater than 100 nM.

For `O=C1CCC(N2C(=O)c3cc4c(cc3C2=O)CN(CC2CCN(CC3(F)CN(c5ccc([C@@H]6c7ccc(O)cc7CC[C@@H]6c6ccccc6)cc5)C3)CC2)C4)C(=O)N1` (stereo partly drawn) [E 286, 2-(2,6-dioxopiperidin-3-yl)-6-((1-((3-fluoro-1-(4-((1R,2S)-6-hydroxy-2-phenyl-1,2,3,4-tetrahydronaphthalen-1-yl)phenyl)azetidin-3-yl)methyl)piperidin-4-yl)methyl)-6,7-dihydropyrrolo[3,4-f]isoindole-1,3(2H,5H)-dione], the DC50 is greater than 100 nM.

For `O=C1CCC(N2Cc3cc4c(cc3C2=O)CN(C(=O)[C@H]2CC[C@H](N3CC(Nc5ccc([C@@H]6c7ccc(O)cc7CC[C@@H]6c6ccccc6)cc5)C3)CC2)C4)C(=O)N1` (single isomer, unassigned) [E 360], the DC50 was less than 10 nM.

Still in this assay, the particulars now being: compounds 16 hours, Table A does not say whether T47D or MCF7, read-out: Potency (DC50).
For `COc1c2c(cc3c1CN(C1CCC(=O)NC1=O)C3=O)CN(CC(=O)N1CC3(CCN(c4cc(F)c([C@@H]5c6ccc7[nH]ncc7c6C[C@@H](C)N5CC(F)F)c(F)c4)CC3)C1)C2` (some centres unmarked) [E 441], the DC50 is less than 10 nM.

As to `C[C@@H]1Cc2cc(O)ccc2C(c2ccc(C3CCC4(CC3)CCN(C(=O)CN3Cc5cc6c(cc5C3)C(=O)N(C3CCC(=O)NC3=O)C6=O)CC4)cc2)N1CC(F)F` (stereo partly drawn) [E 450, 6-(2-(9-(4-((3R)-2-(2,2-difluoroethyl)-6-hydroxy-3-methyl-1,2,3,4-tetrahydroisoquinolin-1-yl)phenyl)-3-azaspiro[5.5]undecan-3-yl)-2-oxoethyl)-2-(2,6-dioxopiperidin-3-yl)-6,7-dihydropyrrolo[3,4-f]isoindole-1,3(2H,5H)-dione], the DC50 was in the range of 10 to 100 nM.

`C[C@@H]1Cc2cc(O)ccc2[C@@H](c2c(F)cc(OC3CC4(CCN(C(=O)CN5Cc6cc7c(cc6C5)C(=O)N(C5CCC(=O)NC5=O)C7=O)CC4)C3)cc2F)N1CC(F)F` (stereo partly drawn) [E 455, 6-(2-(2-(4-((1S,3R)-2-(2,2-difluoroethyl)-6-hydroxy-3-methyl-1,2,3,4-tetrahydroisoquinolin-1-yl)-3,5-difluorophenoxy)-7-azaspiro[3.5]nonan-7-yl)-2-oxoethyl)-2-(2,6-dioxopiperidin-3-yl)-6,7-dihydropyrrolo[3,4-f]isoindole-1,3(2H,5H)-dione]: the DC50 lay in the range of 10 to 100 nM.

For orientation: DC50 means the concentration at which degradation of the target reaches its halfway point.
